The values below come from patent US11344512B2, “Titration of tapentadol” (Grünenthal GmbH, priority 2007, dated 2022).

One data set concerns adverse effects. The following applies: cited from earlier work.
The test system of another data set is pain. The experiment in a line: Preliminary clinical trials: pain treating effect (VAS) versus serum concentration of tapentadol. It is filed as in vivo, human (individuals). The method, then: In one preferred embodiment dose a is below the pharmaceutically effective pain treating dose of tapentadol. The pharmaceutically effective pain treating dose of tapentadol may vary individually and can be determined by routine experimentation for a given subject. Usually, the minimum pharmaceutically effective pain treating dose will be above 50 mg twice daily (bid). Preferably, effective pain treatment is to be regarded as at least 5% decrease in pain in an individual, more preferably at least 10%, still more preferably at least 15% and most preferably at least 20% decrease in pain in an individual, taking into account that low serum concentrations of tapentadol suffice to show an effect in individuals that are relatively sensitive and higher serum concentrations of tapentadol are needed to show an effect in persons that are relatively unsensitive.

Data set [1] deals with patients with osteoarthritis of hip/knee or chronic low back pain. The data set is described as follows: Clinical studies C-1/C-2 (without titration) and E-1/E-2 (forced titration): occurrence of somnolence. It is filed as in vivo, human (patients). The method, then: A randomized, double-blind, multiple dose, parallel-group study assessing the efficacy and safety of 3 dosages of tapentadol prolonged release (bid) (25 mg, 50 mg and 100 mg) compared to oxycodone prolonged release (bid) 20 mg and placebo over 28 days in patients with hip and/or knee-joint osteoarthritis. Subjects: 40-75 years old, male and female patients. 375 patients, randomized to placebo, standard opioid, tapentadol. Treatment Regimen: Day 1 only evening dose Day 2—Day 28 bid Day 29 only morning dose.
A randomized, double-blind, multiple dose, parallel-group study assessing the efficacy and safety of tapentadol prolonged release 25, 50 and 100 mg compared to placebo and tramadol prolonged release 100 mg in patients with chronic low back pain.
Male and female patients 18-75 years old with a history of low back pain of at least 6 months, requiring regular treatment on at least 60 out of last 90 days.
430 patients, randomized to placebo, tramadol 100 mg prolonged release, 3 dosages tapentadol.
A randomized, double-blind, parallel-group study assessing the efficacy and safety of two titration regimen of tapentadol prolonged release (25 mg, 50 mg, 100 mg and 100 mg, 150 mg, 200 mg of free base of tapentadol) given orally twice daily (bid) compared to placebo and oxycodone controlled release (10 mg, 10 mg, 20 mg) in patients with chronic pain due to osteoarthritis of the knee. Subjects: Male and female patients≥40 years old with a diagnosis of osteoarthritis of the knee Treatment Regimen: Patients started with the lowest dose of the titration phase for the first 3 days and up-titrated to the intermediate dose on day 4. Subjects were maintained at the intermediate dose for the next 11 days. After these 11 days patients started the maintenance phase and received the highest dose of each regimen for the remaining 14 days. Subjects who were unable to tolerate the highest dose after having received that dose for at least 3 days were allowed to down titrate to the intermediate dose. Down titration was permitted only once during the fixed-dose maintenance phase.
A randomized, double-blind, parallel-group study that compares the efficacy and safety of two titration regimens of tapentadol prolonged release (25 mg-50 mg-100 mg and 100 mg-150 mg-200 mg) given orally twice daily (bid) and tramadol prolonged release (100 mg-150 mg-200 mg) p.o. bid to placebo in patients with moderate to severe chronic pain due to chronic low back pain. Subjects: Male and female patients≥18 years old with a diagnosis of low back pain of at least 3 months. Treatment Regimen:
Patients took the first dose and continued on the lowest dose in their treatment regimen for 3 days (i.e. 6 doses). After the sixth dose, patients titrated to the intermediate dose in their treatment regimen and continued on this intermediate dose for 11 days (i.e. 22 doses). Up-titration was mandatory. Patients who were unable to tolerate study medication were removed from the study. After the twenty second dose, patients titrated to the final dose in their treatment regimen and continued on this final dose for 14 days.
Concentration measurements were taken from comparative examples C-1 and C-2, both without dose titration. Examples E-1 and E-2 in the same indications were used to get PK/PD information under dose titration. In all studies adverse events were noted.

Data set [2] concerns patients with chronic low back pain or chronic pain from osteoarthritis of the knee or hip. The data set is described as follows: Example E-3: opioid withdrawal after 90 days treatment (COWS and SOWS questionnaires), phase III trial. The following applies: for patients reporting mild-to-moderate withdrawal symptoms (COWS assessment): 2 to 4 days after study medication ceased, after 90 days treatment. It is filed as in vivo, human (patients). The method, then:
The symptoms of opioid withdrawal following long-term treatment (90 days) with tapentadol immediate release (IR) compared with oxycodone IR were evaluated in a randomized, double-blind, active-control, parallel group, flexible dose, multicenter phase III trial of patients with chronic low back pain of chronic pain from osteoarthritis of the knee or hip. Patients (N=849) were randomly assigned in a 4:1 ratio to a flexible dose of tapentadol IR (50 or 100 mg/dose; maximum 600 mg/day) or oxycodone IR (10 or 15 mg/dose; maximum 90 mg/day) every 4 to 6 hours. Symptoms of withdrawal following opioid discontinuation were examined using the Clinical Opioid Withdrawal Score (COWS) and the Subjective Opioid Withdrawal Score (SOWS) questionnaires. […] The mean total SOWS score, 2 to 4 days after last study drug intake, was lower for the tapentadol IR group (6.9) than the oxycodone IR group (8.7). […] In addition, 5 or more days after last study drug intake, the mean total SOWS score was 6.3 for the tapentadol IR group and 7.0 for the oxycodone IR group (no significant difference).

[3] abbreviates: 2 to 4 days after last study drug intake.
Setting [4] is: 5 or more days after last study drug intake.

The structures appear in SMILES notation.

As for `COc1cccc(C2(O)CCCCC2CN(C)C)c1` (stereo not drawn) [tramadol], in the data set with adverse effects, the “frequency of dizziness, nausea and vomiting with slow titration” value was “reduce the frequency”; the “frequency of somnolence with slow titration” value is on record as “not significantly reduced”.
For `CC[C@@H](c1cccc(O)c1)[C@@H](C)CN(C)C` [tapentadol, (−)-(1R,2R)-3-(3-dimethylamino-1-ethyl-2-methyl-propyl)-phenol], the entries for the “visual analog scale (VAS) in a population mean” value with pain (at serum concentration about 5 ng/ml) and in the data set with pain (at serum concentration about 300 ng/ml) were “approximately −2 mm” and “approximately −15 mm”, respectively. Besides, the “concentration at which adverse events (somnolence) occurred, without titration (C-1, C-2) compared to dose titration (E-1, E-2)” value in data set [1] (FIG. 5 and 6, prolonged release) is on record as “much lower concentration”. Also, the “somnolence occurred in % of patients” value was 6% in data set [1] (studies using forced titration, total daily dose 200 mg, pooled data); 12% in data set [1] (studies using forced titration, total daily dose 400 mg, pooled data); 4.3% in data set [1] (studies without titration, total daily dose 172 mg, pooled data from both studies).
With `COc1ccc2c3c1O[C@H]1C(=O)CC[C@@]4(O)[C@@H](C2)N(C)CC[C@]314` [oxycodone, reference compound], the “effect of titration regimen of example E-1 on suppression of somnolence” value in data set [1] (FIG. 8, oxycodone controlled release) was “no comparable effect on the suppression of somnolence”.
With `COc1ccc2c3c1O[C@H]1C(=O)CC[C@@]4(O)[C@@H](C2)N(C)CC[C@]314` [oxycodone IR, reference compound], the entries for the “mean total SOWS score” value in data set [2] (setting [3]) and in data set [2] (setting [4]) were 8.7 and 7.0, respectively. The “patients reporting mild-to-moderate withdrawal symptoms (COWS assessment)” value in data set [2] was found to be 29%.
On the same counts, the results for `CC[C@@H](c1cccc(O)c1)[C@@H](C)CN(C)C` [tapentadol IR] are 6.9, 6.3 and 17%.
